The record followed here is ChEMBL document CHEMBL1201862, “PubChem BioAssay data set” (2004).

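Results reflect a 48-hour exposure of cells in 96-well plates to compound at five concentrations. Abbreviation: GI50, concentration required for 50% inhibition of growth.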 Activity calls are given as the source filed them. Cut-off read from the data, not from the text of the source: active = GI50 up to about 1.1 µM and inactive = higher. A value given as a limit tells only on which side of the number the result lay.

Among the test systems are KM-20L2; SNB-78; DMS-273; LXFL 529; DLD-1; RXF 631; DMS-114; XF498; HOP-18.
What all share (experiment): NCI tumour cell line growth inhibition, 48 h

For the compound `C[N+](C)(C)CC1CCCC(C[N+](C)(C)C)C1=O` (stereo not drawn), the GI50 in the assay on KM-20L2 was 0.855 µM (active); with SNB-78, 2.39 µM (inactive); in the assay with DMS-273, 3.4 µM (inactive); in the assay with LXFL 529 it was 0.177 µM (active); with DLD-1 it was 0.105 µM (active); in the assay on RXF 631, 1.96 µM (inactive). Also, the figures for the GI50 with DMS-114, in the assay with XF498 and with HOP-18 were 1.77 µM (inactive), 0.411 µM (active) and 0.494 µM (active), respectively.
With `CSc1nc(CO)c(CO)n1C`, the GI50 in the assay with KM-20L2, with SNB-78, in the assay on DMS-273, in the assay on DLD-1, in the assay with DMS-114 and in the assay with XF498 was > 100 µM (inactive) throughout. Also, the GI50 in the assay with HOP-18 was > 100 µM (inactive).
`CCP(C)(C)=O`: the GI50 with KM-20L2, in the assay on SNB-78, with DMS-273, with LXFL 529, with DLD-1 and in the assay on DMS-114 was > 100 µM (inactive) throughout. In the assay on XF498, the GI50 is > 100 µM (inactive).
Regarding `O=c1[c-](-c2ccccc2)[se]c(-c2ccccc2)[n+]1-c1ccccc1`, the GI50 in the assay on SNB-78 is 3.81 µM (inactive); in the assay on DMS-273, 19.1 µM (inactive); in the assay with LXFL 529, 13.5 µM (inactive); with DLD-1, 2 µM (inactive); in the assay on RXF 631 it was 13.6 µM (inactive); in the assay on DMS-114, 4.69 µM (inactive). Besides, in the assay with HOP-18, the GI50 is 11.5 µM (inactive).
As to `CCCCCCCCCc1cc(=O)c2c(O)cccc2o1`, the GI50 with SNB-78 was 53 µM (inactive); with DMS-273 it was 41.8 µM (inactive); with LXFL 529, 39.2 µM (inactive); with DLD-1, 61.8 µM (inactive); in the assay with RXF 631 it was 65.6 µM (inactive); in the assay on DMS-114 it was 33 µM (inactive). Further, the GI50 is 31.2 µM (inactive) with XF498 and > 100 µM (inactive) with HOP-18.
For the compound `COC(=O)Cc1cc(OC)c(OC)cc1Br`, the GI50 with KM-20L2, with SNB-78, in the assay on LXFL 529, with DLD-1 and in the assay on DMS-114 was > 100 µM (inactive) throughout.
In the case of `COC1/C=C\C=C(/C)C(=O)NC2=CC(=O)C(NCCCl)=C(CC(C)CC(OC)C(O)C(C)/C=C(/C)C1OC(N)=O)C2=O` (stereo not drawn), the GI50 in the assay on KM-20L2 was 0.0134 µM (active); in the assay on SNB-78, 0.655 µM (active); with DMS-273, 0.053 µM (active); in the assay on LXFL 529 it was 0.0298 µM (active); in the assay on DLD-1, 0.0266 µM (active); with DMS-114, 0.0296 µM (active). Also, the GI50 with XF498 was 0.659 µM (active); in the assay on HOP-18, 0.0308 µM (active).
Consider `COC(=O)C12OCC34C(CC5C(C)=CC(=O)C(O)C5(C)C3C(O)C1O)OC(=O)C(OC(=O)CC(C)C)C24` (stereo not drawn), for which the GI50 in the assay on KM-20L2 is 0.00288 µM (active); in the assay with SNB-78, 0.00346 µM (active); in the assay on DMS-273 it was 0.000401 µM (active); with LXFL 529, < 0.0255 µM (active); in the assay with DLD-1, 0.00149 µM (active); in the assay with DMS-114, 0.000659 µM (active). Further, in the assay with XF498, the GI50 was 0.00116 µM (active).
For the compound `NC1=NS(=O)(=O)Nc2[nH]c(-c3ccccc3)nc21`, the GI50 in the assay on KM-20L2, with SNB-78, with DMS-273, in the assay on LXFL 529, in the assay with DLD-1 and in the assay with DMS-114 was > 100 µM (inactive) throughout. In addition, the GI50 in the assay with XF498 and in the assay on HOP-18 was > 100 µM (inactive) throughout.
As to `C[N+](C)(C)CC(=O)N/N=C/c1oc(-c2cccc([N+](=O)[O-])c2)c(-c2cccc([N+](=O)[O-])c2)c1[N+](=O)[O-]`, the GI50 with KM-20L2 is > 100 µM (inactive); in the assay with DLD-1 it was 64.4 µM (inactive); in the assay with RXF 631 it was 49.7 µM (inactive); with DMS-114, 47.3 µM (inactive).
For `COc1cc(C2C(Cl)C(=O)N2NC(=O)c2ccc(N)cc2)cc(Br)c1O` (stereo not drawn), the GI50 with KM-20L2 was 17.7 µM (inactive); with SNB-78, 17.5 µM (inactive); with DMS-273, 18 µM (inactive); in the assay on LXFL 529, 3.15 µM (inactive); in the assay on DLD-1, 19 µM (inactive); in the assay with DMS-114, 6.35 µM (inactive). For the same compound, in the assay on XF498, the GI50 was 17 µM (inactive).
Consider `Cc1c(Cl)cccc1NC(=O)c1cccc([N+](=O)[O-])c1O`, for which the GI50 was 13.1 µM (inactive) in the assay on KM-20L2; 34.1 µM (inactive) with SNB-78; 12.4 µM (inactive) in the assay on DMS-273; 11.3 µM (inactive) with LXFL 529; 21.4 µM (inactive) in the assay on DLD-1; 13.8 µM (inactive) with RXF 631. Moreover, the GI50 with DMS-114 was 11.5 µM (inactive); in the assay with XF498, 16.3 µM (inactive); in the assay with HOP-18 it was 2.7 µM (inactive).
For the compound `CC(=O)c1c(P(=O)(OC(C)C)OC(C)C)nn(-c2ccc([N+](=O)[O-])cc2)c1C`, the GI50 in the assay with KM-20L2, with SNB-78, in the assay with DMS-273, with LXFL 529, with DLD-1 and with DMS-114 was > 100 µM (inactive) each time. Moreover, the GI50 in the assay with XF498 is > 100 µM (inactive).
In the case of `CSc1s[s+]c(SC)c1[O-]`, the GI50 in the assay with KM-20L2 is 80.7 µM (inactive); in the assay on SNB-78 it was 55.1 µM (inactive); in the assay with DMS-273, 27.4 µM (inactive); in the assay on LXFL 529 it was 18.7 µM (inactive); with DLD-1, 16.5 µM (inactive); with RXF 631, 19.2 µM (inactive). In addition, the results for the GI50 in the assay on DMS-114, with XF498 and in the assay with HOP-18 were 17.5 µM (inactive), 45.8 µM (inactive) and > 100 µM (inactive), respectively.
As to `Cc1cc2c(cc1C)[n+]([O-])c(C(=O)C/C(=N/NC(=O)CC#N)C(=O)Nc1ccccc1C(F)(F)F)c(C)[n+]2[O-]`, the GI50 in the assay with KM-20L2 is 37.5 µM (inactive); in the assay on SNB-78, 2.59 µM (inactive); with DMS-273 it was 53.6 µM (inactive); in the assay with LXFL 529 it was 45.6 µM (inactive); in the assay with RXF 631 it was 16.9 µM (inactive); with DMS-114, 28.6 µM (inactive). The GI50 was 82.2 µM (inactive) in the assay with XF498 and > 100 µM (inactive) with HOP-18.
In the case of `N#CCc1ccc(/C(C#N)=C2/OC(=N)C(c3ccc(CC#N)cc3)C2=O)cc1` (stereo not drawn), the GI50 with KM-20L2, in the assay with SNB-78, in the assay on DMS-273, with LXFL 529, in the assay with DLD-1 and in the assay on RXF 631 was > 100 µM (inactive) each time. In addition, the GI50 in the assay with DMS-114 and in the assay on XF498 was > 100 µM (inactive) throughout.
Turning to `O=C(O)/C(=C/c1ccccc1[N+](=O)[O-])c1ccccc1`, the GI50 with KM-20L2, in the assay with SNB-78, in the assay with DMS-273, in the assay on LXFL 529, in the assay with DLD-1 and in the assay with RXF 631 was > 100 µM (inactive) in each case. For the same compound, the GI50 in the assay with DMS-114 and in the assay on XF498 was > 100 µM (inactive) throughout.
`CC(=O)Nc1ccc(-c2nnc(SCC(=O)Nc3ccccc3Cl)o2)cc1`: the GI50 in the assay on KM-20L2, in the assay with SNB-78, in the assay with DMS-273, with LXFL 529, with DLD-1 and in the assay with DMS-114 was > 100 µM (inactive) throughout. Moreover, in the assay with HOP-18, the GI50 is 87.7 µM (inactive).
In the case of `C[S+](C)C1(c2ccccc2)C(=O)c2ccccc2C1=O`, the GI50 in the assay on KM-20L2, in the assay with SNB-78, in the assay on DMS-273, with LXFL 529, in the assay on DLD-1 and in the assay with DMS-114 was > 100 µM (inactive) in each case. The GI50 with XF498 was 32.4 µM (inactive); in the assay on HOP-18, > 100 µM (inactive).
With `O=C1C=C(Nc2ccc(Br)cc2)c2ccccc2C1=O`, the GI50 with KM-20L2 is 23 µM (inactive); in the assay on DMS-273, 12.2 µM (inactive); with LXFL 529 it was 12.5 µM (inactive); in the assay with DMS-114, 4.65 µM (inactive).
As for `CC(C)N(C(=O)C12C3C4C1C1C2C3C41C(=O)O)C(C)C` (stereo not drawn), the GI50 in the assay with KM-20L2, in the assay with DMS-273, in the assay on LXFL 529, in the assay with DLD-1 and in the assay with DMS-114 was > 100 µM (inactive) in each case.
For the compound `Cc1cccc2nc3cccc(C(=O)NCCN(C)C)c3nc12`, the GI50 with SNB-78 was 0.802 µM (active); with DMS-273 it was 0.42 µM (active); in the assay with DLD-1 it was 0.444 µM (active); in the assay on DMS-114 it was 1.06 µM (active); in the assay with HOP-18 it was 2.4 µM (inactive).
In the case of `NC1=NN(c2ccccc2)C(=O)C1/C(=N\NC(=O)c1cc2ccccc2cc1O)C(=O)Nc1ccc(Cl)c(Cl)c1` (stereo not drawn), the GI50 in the assay on KM-20L2 was 32.5 µM (inactive); in the assay on SNB-78, 23.8 µM (inactive); in the assay with DMS-273 it was 11.6 µM (inactive); in the assay with LXFL 529 it was 34.4 µM (inactive); with DLD-1 it was 30.5 µM (inactive); in the assay with DMS-114, 25.2 µM (inactive). The GI50 with XF498 was 25.1 µM (inactive); with HOP-18, 31.6 µM (inactive).
Regarding `Cc1ccc(C(=O)OC(C)C)cc1/N=N/N(C)C`, the GI50 is 55.5 µM (inactive) with KM-20L2; 55.3 µM (inactive) in the assay on SNB-78; 56.5 µM (inactive) with DMS-273; 66.5 µM (inactive) with LXFL 529; > 100 µM (inactive) in the assay on DLD-1.
With `CC(=O)Nc1ccc(Cl)c(Cl)c1`, the GI50 in the assay with KM-20L2, with SNB-78, in the assay with DMS-273, with LXFL 529, in the assay with DLD-1 and in the assay on DMS-114 was > 100 µM (inactive) in each case.
For `CO[C@@H]1[C@H](OC(=O)NC(=O)CCl)CC[C@]2(CO2)[C@H]1[C@@]1(C)O[C@@H]1CC=C(C)C` [O-CHLOROACETYLCARBAMOYLFUMAGILLOL], the GI50 is 16.6 µM (inactive) in the assay with KM-20L2; > 10 µM (inactive) with SNB-78; 7.11 µM (inactive) with DMS-273; 1.78 µM (inactive) in the assay with LXFL 529; 8.83 µM (inactive) in the assay on DLD-1; 1.67 µM (inactive) in the assay on RXF 631. Further, the values for the GI50 in the assay on DMS-114, in the assay with XF498 and in the assay on HOP-18 were 7.03 µM (inactive), 6.35 µM (inactive) and > 10 µM (inactive), respectively.
